Test results published in ChEMBL document CHEMBL1201862, “PubChem BioAssay data set” (2004).
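Step 1: Grow cells in 96-well plates. Step 2: Expose to compound for 48 hours at 5 concentrations. Step 3: Interpolate endpoints linearly; if unreached, use highest concentration. GI50 is the concentration that inhibits growth by half.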 Active and inactive are the calls of the source. No stated cut-off is given here; in the data, active = GI50 up to about 1.1 µM and inactive = higher.

Key:
Test in all cases: growth of human tumour cells (NCI), 48 h
CAKI-1 = test system: CAKI-1
K562 = test system: K562
COLO 205 = test system: COLO 205
OVCAR-5 = test system: OVCAR-5
OVCAR-8 = test system: OVCAR-8
OVCAR-3 = test system: OVCAR-3
DU-145 = test system: DU-145
M14 = test system: M14
RXF 393 = test system: RXF 393
PC-3 = test system: PC-3
NCI-H460 = test system: NCI-H460
A498 = test system: A498
MDA-MB-435 = test system: MDA-MB-435
EKVX = test system: EKVX
SN12C = test system: SN12C
SF-539 = test system: SF-539
OVCAR-4 = test system: OVCAR-4
SK-MEL-28 = test system: SK-MEL-28
IGROV-1 = test system: IGROV-1
SR = test system: SR

SMILES	GI50 (CAKI-1)	GI50 (K562)	GI50 (COLO 205)	GI50 (OVCAR-5)	GI50 (OVCAR-8)	GI50 (OVCAR-3)	GI50 (DU-145)	GI50 (M14)	GI50 (RXF 393)	GI50 (PC-3)	GI50 (NCI-H460)	GI50 (A498)	GI50 (MDA-MB-435)	GI50 (EKVX)	GI50 (SN12C)	GI50 (SF-539)	GI50 (OVCAR-4)	GI50 (SK-MEL-28)	GI50 (IGROV-1)	GI50 (SR)
Nc1nc(N)c2cc(Sc3ccc4ccccc4c3)ccc2n1	4.52 µM (inactive)	0.211 µM (active)	1.63 µM (inactive)	3.48 µM (inactive)	1 µM (active)	5.89 µM (inactive)	5.79 µM (inactive)	1.23 µM (inactive)	3.32 µM (inactive)	1.87 µM (inactive)	0.682 µM (active)	11.5 µM (inactive)	0.687 µM (active)	2.96 µM (inactive)	1.03 µM (active)	1.73 µM (inactive)	4.18 µM (inactive)	–	–	–
CC#CC(O)(C(=O)OC1CCC2CCC1N2C)C1CCCC1 (stereo not drawn)	> 100 µM (inactive)	–	> 100 µM (inactive)	> 10 µM (inactive)	> 100 µM (inactive)	> 100 µM (inactive)	> 100 µM (inactive)	> 100 µM (inactive)	> 100 µM (inactive)	> 100 µM (inactive)	–	–	–	> 100 µM (inactive)	> 100 µM (inactive)	> 100 µM (inactive)	–	> 100 µM (inactive)	> 100 µM (inactive)	> 100 µM (inactive)
COc1ccc(C2SC(=N)Nc3c2c(C)nn3C(=O)c2ccccc2O)cc1 (stereo not drawn)	0.667 µM (active)	0.45 µM (active)	8.87 µM (inactive)	8.09 µM (inactive)	0.998 µM (active)	1.96 µM (inactive)	–	1.67 µM (inactive)	0.532 µM (active)	3.81 µM (inactive)	3.72 µM (inactive)	–	0.455 µM (active)	7.38 µM (inactive)	2.44 µM (inactive)	0.27 µM (active)	1.9 µM (inactive)	> 10 µM (inactive)	0.497 µM (active)	–
COC(=O)CCc1ccc2c(c1)CC1(C2)Cc2ccc(CCC(=O)OC)cc2C1	–	> 100 µM (inactive)	57.5 µM (inactive)	> 100 µM (inactive)	60.1 µM (inactive)	77.4 µM (inactive)	–	> 100 µM (inactive)	> 100 µM (inactive)	> 100 µM (inactive)	–	> 100 µM (inactive)	> 100 µM (inactive)	> 100 µM (inactive)	68.5 µM (inactive)	> 100 µM (inactive)	53.3 µM (inactive)	–	75.2 µM (inactive)	29.4 µM (inactive)
CC(C)=NN/C(=N\c1ccc(Cl)cc1)NS(=O)(=O)c1ccc(Oc2cccc(Cl)c2C#N)cc1	> 100 µM (inactive)	> 100 µM (inactive)	> 100 µM (inactive)	> 100 µM (inactive)	> 100 µM (inactive)	> 100 µM (inactive)	> 100 µM (inactive)	> 100 µM (inactive)	–	> 100 µM (inactive)	> 100 µM (inactive)	–	> 100 µM (inactive)	> 100 µM (inactive)	> 100 µM (inactive)	–	> 100 µM (inactive)	> 100 µM (inactive)	> 100 µM (inactive)	–
COc1cc(/C=C2\CC3C4CC=C5C[C@@H](O)CC[C@]5(C)C4CC[C@]3(C)\C2=N\O)cc(OC)c1OC (stereo partly drawn)	3.94 µM (inactive)	34.4 µM (inactive)	3.73 µM (inactive)	10.3 µM (inactive)	8.45 µM (inactive)	7.29 µM (inactive)	12.9 µM (inactive)	10.5 µM (inactive)	3.61 µM (inactive)	4.28 µM (inactive)	4.99 µM (inactive)	6.93 µM (inactive)	5.12 µM (inactive)	6.04 µM (inactive)	7.13 µM (inactive)	6.25 µM (inactive)	3.94 µM (inactive)	14.2 µM (inactive)	13 µM (inactive)	–
O=C(CCc1nnc(S)[nH]1)Nc1ccccc1Cl	> 100 µM (inactive)	> 100 µM (inactive)	> 100 µM (inactive)	> 100 µM (inactive)	> 100 µM (inactive)	> 100 µM (inactive)	–	> 100 µM (inactive)	> 100 µM (inactive)	–	> 100 µM (inactive)	> 100 µM (inactive)	–	> 100 µM (inactive)	> 100 µM (inactive)	> 100 µM (inactive)	> 100 µM (inactive)	> 100 µM (inactive)	> 100 µM (inactive)	> 100 µM (inactive)
COC(=O)c1nc(N)nc(O)c1-c1ccc(Cl)cc1	> 100 µM (inactive)	> 100 µM (inactive)	> 100 µM (inactive)	> 100 µM (inactive)	> 100 µM (inactive)	> 100 µM (inactive)	–	> 100 µM (inactive)	> 100 µM (inactive)	–	> 100 µM (inactive)	> 100 µM (inactive)	–	> 100 µM (inactive)	> 100 µM (inactive)	> 100 µM (inactive)	> 100 µM (inactive)	> 100 µM (inactive)	> 100 µM (inactive)	> 70 µM (inactive)
Cc1cccc(N2C(=O)C3c4[nH]c5ccccc5c4C4CCC(C(C)(C)C)CC4C3C2=O)c1 (stereo not drawn)	13.1 µM (inactive)	5.89 µM (inactive)	11.9 µM (inactive)	16.8 µM (inactive)	3.5 µM (inactive)	14 µM (inactive)	12.4 µM (inactive)	13.3 µM (inactive)	12.4 µM (inactive)	12.4 µM (inactive)	6.19 µM (inactive)	13.1 µM (inactive)	15.2 µM (inactive)	14.4 µM (inactive)	14.2 µM (inactive)	–	12.9 µM (inactive)	16.3 µM (inactive)	4.13 µM (inactive)	–
COc1ccc(OC(=O)N2C/C(=C\c3ccccc3)C(=O)/C(=C/c3ccccc3)C2)cc1	–	0.824 µM (active)	7.74 µM (inactive)	7.64 µM (inactive)	2.47 µM (inactive)	6.85 µM (inactive)	24.9 µM (inactive)	2.62 µM (inactive)	2.58 µM (inactive)	3.66 µM (inactive)	5.42 µM (inactive)	2.33 µM (inactive)	–	16.6 µM (inactive)	2.43 µM (inactive)	7.82 µM (inactive)	8.17 µM (inactive)	2.14 µM (inactive)	5.6 µM (inactive)	0.222 µM (active)
COc1ccc(C2=Nn3c(nnc(Cc4ccc(Cl)cc4)c3=O)SC2)cc1	38.7 µM (inactive)	24.3 µM (inactive)	50.8 µM (inactive)	> 100 µM (inactive)	93.1 µM (inactive)	28.2 µM (inactive)	59.3 µM (inactive)	31.5 µM (inactive)	27.7 µM (inactive)	42.9 µM (inactive)	37.8 µM (inactive)	30.8 µM (inactive)	10.4 µM (inactive)	52.2 µM (inactive)	61.2 µM (inactive)	37.8 µM (inactive)	42.9 µM (inactive)	74.6 µM (inactive)	51.1 µM (inactive)	–
CCN(CC)C(=S)SS(=O)(=O)c1ccc(Cl)cc1	19.8 µM (inactive)	14.5 µM (inactive)	26.5 µM (inactive)	44 µM (inactive)	16.9 µM (inactive)	31.7 µM (inactive)	27.3 µM (inactive)	17.3 µM (inactive)	17.6 µM (inactive)	–	29 µM (inactive)	> 100 µM (inactive)	20.5 µM (inactive)	> 100 µM (inactive)	20.2 µM (inactive)	21.6 µM (inactive)	45.5 µM (inactive)	17.9 µM (inactive)	–	0.0796 µM (active)
COC(=O)C(C(=O)c1ccccc1)C(C(=O)C(=O)Nc1ccc(OC)cc1OC)C(=O)C(=O)c1ccc(C)cc1 (stereo not drawn)	> 100 µM (inactive)	> 100 µM (inactive)	> 100 µM (inactive)	> 100 µM (inactive)	> 100 µM (inactive)	> 100 µM (inactive)	–	> 100 µM (inactive)	> 100 µM (inactive)	–	> 100 µM (inactive)	> 100 µM (inactive)	–	> 100 µM (inactive)	> 100 µM (inactive)	> 100 µM (inactive)	> 100 µM (inactive)	> 100 µM (inactive)	> 100 µM (inactive)	> 100 µM (inactive)
CCc1n[nH]c(=O)n1N1C(=O)C2CC=CCC2C1=O (stereo not drawn)	> 100 µM (inactive)	> 100 µM (inactive)	> 100 µM (inactive)	> 100 µM (inactive)	> 100 µM (inactive)	> 100 µM (inactive)	–	> 100 µM (inactive)	> 100 µM (inactive)	> 100 µM (inactive)	> 100 µM (inactive)	> 100 µM (inactive)	> 100 µM (inactive)	> 100 µM (inactive)	> 100 µM (inactive)	> 100 µM (inactive)	> 100 µM (inactive)	–	> 100 µM (inactive)	> 100 µM (inactive)
Cc1ccc(/N=N\c2c(O)ccc3cc(S(=O)(=O)O)ccc23)cc1	> 100 µM (inactive)	> 100 µM (inactive)	> 100 µM (inactive)	> 100 µM (inactive)	> 100 µM (inactive)	> 100 µM (inactive)	> 100 µM (inactive)	> 100 µM (inactive)	> 100 µM (inactive)	> 100 µM (inactive)	> 100 µM (inactive)	> 100 µM (inactive)	> 100 µM (inactive)	> 100 µM (inactive)	> 100 µM (inactive)	> 100 µM (inactive)	> 100 µM (inactive)	> 100 µM (inactive)	> 80.2 µM (inactive)	–
Cc1c(C(=O)/C=C/c2ccc(Cl)cc2)[n+]([O-])c2ccccc2[n+]1[O-]	9.2 µM (inactive)	4.6 µM (inactive)	14.1 µM (inactive)	15 µM (inactive)	11.2 µM (inactive)	12.5 µM (inactive)	–	15.6 µM (inactive)	4.18 µM (inactive)	–	11.3 µM (inactive)	14.2 µM (inactive)	–	15.6 µM (inactive)	7.1 µM (inactive)	12.1 µM (inactive)	10.5 µM (inactive)	17 µM (inactive)	11.8 µM (inactive)	19.3 µM (inactive)
